How the values were obtained:
[1] = system: anti-compound 2 sera, and anti-compound 3 sera; test: RIA of bupropion using 125I-labeled competitors with anti-compound 2 sera and anti-compound 3 sera: sensitivity; format: binding, rabbit (preferred host animal); details: with either anti-compound 2 or anti-compound 3 sera; standard curves, FIG. 2
Experimental: (§1) Samples of six standard solutions of bupropion in blank plasma having concentrations of 0.39 to 50 ng/ml) are pipetted (0.1 ml each) in duplicate into 12×75 mm plastic tubes. Duplicate non-specific binding (no antibody) and maximum binding tubes (no unlabeled bupropion) receive 0.1 ml blank plasma. Spiked plasma controls at several concentrations of (e.g., 1.0, 10.0, and 100 ng/ml) and plasma samples for assay (diluted into the standard range with blank plasma if necessary) are assayed in duplicate. After being placed in an ice bath, all tubes receive (in order) 0.2 ml ^3 H bupropion (416 pg. containing approximately 10^4 cpm) and 0.7 ml anti-bupropion serum (raised to a ring-functionalized immunogen according to the present invention) (at pre-determined dilutions such that approximately 40% of the ^3 H bupropion added is bound), both in assay buffer (0.05 M phosphate-bufferedisotonic saline, containing 0.01 M EDTA and 0.1% gelatin, pH 7.0). Non-specific binding tubes receive 0.7 ml assay buffer.) Following incubation either at 25° C. for 2 hours or overnight at 4° C., bound and free ^3 H bupropion are separated by incubation for 10 min at 0° C. with 0.5 ml ice-cold dextran-coated charcoal solution (0.25% dextran, 5 mg/ml charcoal, in assay buffer) followed by centrifugation for 10 minutes at 4° C. […] The supernatants, containing antibody-bound ^3 H bupropion are carefully decanted into liquid scintillation cocktail for quantitation of ^3 H. After counts (minus average nonspecific binding cpm) are expressed as percentages of average maximum binding cpm, bupropion concentrations in plasma samples and spiked controls are read from a standard curve (log concentration vs percent average maximum binding).
RIA's have been run according to the method of Example X utilizing ^125 I labeled bupropion competitors of the present invention in conjunction with antisera obtained following immunization with immunogens of the present invention. […] Following the ethanol precipitation of antibody-bound ^125 I-bupropion competitor at equilibrium, ^125 I in the protein pellets was quantified.

[2] = system: antisera raised by presenting a suitable bupropion variant-carrier material conjugate to the immune system of host animals; test: competition of bupropion with radiolabeled competitor for binding to antisera; parameters: species or system rabbit
Experimental: as §1, with “7.0).” for “7.0). Non-specific binding tubes receive 0.7 ml assay buffer.) Following incubation either at 25° C. for 2 hours or overnight at 4° C., bound and free ^3 H bupropion are separated by incubation for 10 min at 0° C. with 0.5 ml ice-cold dextran-coated charcoal solution (0.25% dextran, 5 mg/ml charcoal, in assay buffer) followed by centrifugation for 10 minutes at 4° C.”

[3] = system: anti-compound 1 sera; test: RIA of bupropion using 125I-labeled competitor with anti-compound 1 sera: sensitivity; format: binding, rabbit (preferred host animal); details: in conjunction with anti-compound 1 sera; compared with the other iodinated competitors, FIG. 2
Experimental: as §1, with “7.0).” for “7.0). Non-specific binding tubes receive 0.7 ml assay buffer.) Following incubation either at 25° C. for 2 hours or overnight at 4° C., bound and free ^3 H bupropion are separated by incubation for 10 min at 0° C. with 0.5 ml ice-cold dextran-coated charcoal solution (0.25% dextran, 5 mg/ml charcoal, in assay buffer) followed by centrifugation for 10 minutes at 4° C.”, “binding). […]” for “binding).”

Compound | RIA sensitivity relative to the compound 10 (3H bupropion) assay system [1] | also measured
CC(NC(C)(C)C)C(=O)c1ccc(O)c([125I])c1 (stereo not drawn) [Compound 9, ^125 I-α-t-Butylamino-3-iodo-4-hydroxypropiophenone] | approximately ten times more sensitive | –
CC(NC(C)(C)C)C(=O)c1ccc(OCC(=O)NCCc2ccc(O)c([125I])c2)c(Cl)c1 (stereo not drawn) [Compound 7, α-t-Butylamino-3-chloro-4-carbomethoxypropiophenone-^125 I-tyramine amide] | sensitivity approximately equal | –
CC(NC(C)(C)C)C(=O)c1cccc(Cl)c1 (racemic) [bupropion, (±)-2-tert-butylamino-3'-chloropropiophenone] | – | competition with radiolabeled bupropion or competitor for binding to antisera [2]: successfully compete
CC(NC(C)(C)C)C(=O)c1ccc(CCCOC(=O)CCC(=O)NCCc2ccc(O)c([125I])c2)c(Cl)c1 (stereo not drawn) [Compound 8, α-t-butylamino-3-chloro-4-γ-hydroxypropylpropiophenonehemisuccinate-^125 I-tyramine amide] | sensitivity approximately equal | –
CC(NC(C)(C)C)C(=NOCC(=O)NCCc1ccc(O)c([125I])c1)c1cccc(Cl)c1 (stereo not drawn) [Compound 6, α-t-Butylamino-3-chloropropiophenone-carboxymethyloxime-^125 I-tyramine amide] | – | RIA sensitivity [3]: least sensitive RIA
